According to patent publication US7465453B2, “Polypeptide fragments of CKLF1” (Peking University, priority 2004, dated 2008):
“Also recorded” adds a separate entry of the source.

Tests used:
[1] = tested on: OVA-sensitized murine asthma model; assay: OVA-sensitized murine asthma model; format: in vivo, C57BL/6 mice; conditions: for airway hyperreactivity: OVA-sensitized and challenged mice, i.p. pretreatment
Description: C57BL/6 mice (20-25 g) of either sex were sensitized by an i.p. injection (100 μl) of 20 μg chicken OVA (Sigma-Aldrich, St. Louis, Mo.) emulsified in Imject alum (2.25 mg Al(OH)3/2 mg Mg(OH)2) (Pierce, Rockfield, Ill.) on days 0 and 14. Mice were injected with 1, 10, or 100 μg of C27 or C19 i.p, and thirty minutes later, these mice were subsequently challenged with an aerosol generated from 1% OVA in saline (OVA), or saline alone, for 20 min by ultrasonic nebulization (DeVilbiss, Somerset, Pa.). This procedure was repeated daily on days 24, 25, and 26. The mice were assessed on day 28.

[2] = target: T1, CCR6 (Homo sapiens, UniProt P51684); assay: Internalization of CCR6-EGFP in transiently transfected HEK293 cells; format: cell-based; conditions: HEK293 cells transfected with pCCR6-EGFP; 37° C., 2 hours
T1 construct: The cDNA fragment covering the open reading frame for CCR6 chemokine receptor was cloned into pEGFP-N1 vector (CLONTECH); expressed in transfected cells; host or cells: HEK293 (transient)
T1 sequence (P51684 1-374): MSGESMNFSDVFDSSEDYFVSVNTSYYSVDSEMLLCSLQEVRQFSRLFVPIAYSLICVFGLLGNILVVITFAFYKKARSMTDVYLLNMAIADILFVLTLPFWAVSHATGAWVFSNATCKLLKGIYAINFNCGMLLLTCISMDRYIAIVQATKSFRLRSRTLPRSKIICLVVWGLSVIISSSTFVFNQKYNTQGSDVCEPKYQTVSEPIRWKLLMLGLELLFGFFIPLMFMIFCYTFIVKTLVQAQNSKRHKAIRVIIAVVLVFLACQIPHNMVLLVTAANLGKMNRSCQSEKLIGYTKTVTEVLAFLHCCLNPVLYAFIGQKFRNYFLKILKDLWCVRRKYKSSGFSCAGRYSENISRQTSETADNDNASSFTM
Description: The cDNA fragment covering the open reading frame for CCR6 chemokine receptor was cloned into pEGFP-N1 vector (CLONTECH). pCCR6-EGFP transiently expressing HEK293 cells were cultured in glass-bottom dishes in RPMI 1640 with 10% FBS. After 16-24 hours of serum starvation, cells were treated with CKLF1 C-terminal peptides or MIP3α at 37° C. for 2 hours. Cells were washed with cold PBS and fixed with 2% paraformaldehyde in PBS. The subcellular localization of CCR6-EGFP protein was visualized using a Leica TCS-NT confocal fluorescence microscope with a 63× oil immersion lens (Wetzler, Heidelberg, Germany). The excitation and emission wavelengths were 488 and 515-540 nm, respectively.

[3] = tested on: U937 cells; assay: Chemotaxis of U937 cells; format: cell-based; conditions: for migration (chemotaxis) of U937 cells: C19, C27, RANTES: U937 cells stimulated by 30 ng/ml IFN-γ
Description: The chemotaxis assay was performed using a 48-well microchemotaxis chamber (Neutroprobe, Cabin John, Md., U.S.A.). U937 cells were stimulated by 30 ng/ml IFN-γ for 4 days because IFN-γ could increase the expression of chemokine receptors CCR1, CCR3, and CCR5 in U937 cells. Then part cells were incubated with mouse anti CCR5 100 μg/ml, and/or rat anti CCR3 10 μg/ml for 30 minutes at 37° C., and corresponding mouse IgG and rat IgG as controls. Chemoattractants RANTES, C19 and C27 were diluted in HEPES-buffered RPMI 1640 medium supplemented with 0.5% BSA to indicate concentration, and placed in the lower wells (28 μl/well). U937 cells stimulated by IFN-γ were resuspended in the same medium at 1×10^6 cells/ml and added to the upper wells (50 μl/well), which were separated from the lower wells by a polyvinylpyrrolidone-free polycarbonate filter with 5-μm pores pre-coated by 0.001% fibronectin. The chamber was incubated for 2 hours at 37° C. in 5% CO2 and 95% air. Filters were removed from the chamber, washed, fixed, and stained with Three Step Stain Set. Cells that migrated were counted in 5 randomly selected high power fields (400×) per well. The group with no Chemoattractants in the lower wells was used as a control. All samples were assayed twice at least. The chemotactic index (CI) was calculated from the number of cells that migrated to the control. Significant chemotaxis was defined as CI>2.

Row | Substance | inhibition of eosinophil recruitment into the airways (BAL fluid analysis) ([1]; 1 μg/mouse i.p., vs positive control group) [%] | inhibition of eosinophil recruitment into the airways (BAL fluid analysis) ([1]; 10 μg/mouse i.p., vs positive control group) [%] | inhibition of eosinophil recruitment into the airways (BAL fluid analysis) ([1]; 100 μg/mouse i.p., vs positive control group) [%] | airway hyperreactivity [1] | internalization of CCR6-EGFP [2] | migration (chemotaxis) of U937 cells [3] | inhibition of the eosinophil infiltration into the BAL fluid ([1]; doses ranging from 1 to 100 μg/mouse i.p., vs positive control group) | chemotactic activity after neutralization of chemokine receptors ([3]; IFN-γ-stimulated U937 cells, mouse anti CCR5 and/or rat anti CCR3)
1 | FNPSGPYQKKPVHEKKEVL (listed as Homo sapiens) [C19] | 78 | 69 | 74 | significant decrease | could induce internalization of CCR6-EGFP | could induce migration | – | –
2 | ALIYRKL LFNPSGPYQKKPVHEKKEVL (ALIYRKLLFNPSGPYQKKPVHEKKEVL; listed as Homo sapiens) [C27] | – | – | – | small, but not statistically significant, increase | could induce internalization of CCR6-EGFP | could induce migration | did not demonstrate any inhibition | had no chemotactic activity; also recorded: obviously inhibited
